What was measured:
hiPSC NMF-iPSC6 = test: cell survival 24 hrs post enzymatic passage; type: cell-based, human; details: hiPSC NMF-iPSC6, enzymatically passaged, 24 hrs post passage, mean ±SEM, n=3
Method: (§1) Enzymatic passage of hPSC methodology 1. 24 hrs prior to passage (around 70-80% confluence), supply 1 well of near confluent hPSC with 2 ml StemPro supplemented with 30 μM SC332 (done during usual daily feed). 2. At point of passage, remove media and wash cells 1× in PBS (−/−). 3. Add 1.5 ml of TrypLE Select (1×) to well and return to incubator for 2-5 mins to dissociate to single cells. 4. Add 1.5 ml of StemPro to deactivate TrypLE Select and pipette gently using a 5 ml serological pipette (to dissociate any remaining clumps). 5. Transfer cells to 15 ml conical bottomed tube and centrifuge for 3 mins at 300 g. 6. Aspirate as much supernatant as possible and resuspend cell pellet by gently flicking. 7. Resuspend cells in PBS (−/−) and centrifuge again for 3 mins at 300 g. 8. Aspirate PBS (−/−) and resuspend cells in 1 ml of StemPro. Gently pipette using serological pipette. 9. Perform a cell count and replate hPSC at a density of 5×10^5 cells per well of a pre-coated 6 well plate. Top up to 2 mls total with StemPro supplemented with 30 μM SC332. Wells are pre-coated with 0.3 mg/ml fibronectin (recombinant vitronectin fragment can also be used). 10. Return cells to incubator and supply with fresh StemPro on a daily basis. 11. 24 hrs prior to subsequent passages (around 70-80% confluence), supply 1 well of PSC with 2 ml StemPro supplemented with 30 μM SC332 (done during usual daily feed). NB SC332 can be used transiently as described above or can be added to culture medium continuously (still at 30 μM).
(§2) Human pluripotent stem cells (hPSC) were either treated with SC332, Y27632, or left untreated, before being enzymatically passaged. […] In particular, the hESC lines H1, H9 and RC9 and the hiPSC NMF-iPSC6 had cell survival of 72% (±2.9), 73% (±2.8), 69% (±1.9) and 74% (±2.6) respectively when treated with SC332. […] Data shown is the mean survival ±SEM, n=3.

hESC line H1 = test: cell survival 24 hrs post enzymatic passage; type: cell-based, human; details: enzymatically passaged, 24 hrs post passage, mean ±SEM, n=3
Method: as §1, §2

hESC line RC9 = test: cell survival 24 hrs post enzymatic passage; type: cell-based, human; details: enzymatically passaged, 24 hrs post passage, mean ±SEM, n=3
Method: as §1, §2

hESC line H9 = test: cell survival 24 hrs post enzymatic passage; type: cell-based, human; details: enzymatically passaged, 24 hrs post passage, mean ±SEM, n=3
Method: as §1, §2

[1] = test system: pMLC in iPSC (cell line NMF-iPS6); test: western blot of phosphorylated myosin light chain (pMLC) after dissociation; type: cell-based, human; details: 15 mins post-dissociation, compared with untreated cells
Method: Protein samples were taken from iPSC (cell line NMF-iPS6) that were treated with SC332, Y27632 or had no treatment (control) before being dissociated. Samples were harvested 15 mins, 30 mins, 45 mins, 1 hr, 2 hr and 4 hr post dissociation. Western blot analysis was performed. […] Data shown as mean±SEM, n=3.

hPSC (H1 hESC) = test: cytogenetic stability (karyotype) after 30 consecutive passages; type: cell-based, human; details: H1 hESC treated for 30 consecutive passages
From the text: In addition to this, long term exposure to compound SC332 had no detrimental effect on the karyotypic stability of hPSC (FIGS. 2 and 3).

[2] = test system: hPSC (hESC cell line H1 and NMF-iPS6); test: passive differentiation into three germ layers after 30 passages; type: cell-based, human; details: after 30 consecutive enzymatic passages
From the text: HPSC treated for 30 passages with SC332 or Y27632 were passively differentiated for 2 weeks in suspension culture, followed by 2 weeks adherent culture, fixed and stained for markers of the three germ layers. Control cells that had been mechanically passaged and unexposed to any survival compound were also differentiated and stained in the same way. PAX6 is stained in the left hand column, AFP in the centre column and SMA in the right hand column. All cells were co-stained with DAPI. Scale bar represents 100 μm.
The differentiation capacity of hPSC after treatment with SC332 was also assessed. HPSC (hESC cell line H1 and NMF-iPS6) that had been enzymatically passaged with either SC332 or Y27632 for 30 consecutive passages were passively differentiated alongside mechanically maintained cells using a mixture of embryoid body based suspension culture and adherent culture. Differentiated cells were subsequently fixed and stained for markers from each of the three germ layers. […] As expected, untreated mechanically passaged control cells, included as a positive control, were also able to differentiate into each of the three germ layers (FIG. 5).

ROCK2 = ROCK2 (Rattus norvegicus, UniProt Q62868); test: radioactive filter-binding kinase assay (33P-ATP); type: biochemical
Method: (§3) This screen utilises a radioactive filter-binding assay (33P-ATP) to assess the effect of compounds on kinase activity. Results confirmed that SC332 had no inhibitory effect on ROCK2 at a concentration of 10 μM (96% activity. SC332 also had very limited effect on the closely related PRK2, showing 76% and 98% activity when used at 10 μM and 30 μM respectively (FIG. 6).

PRK2 = PRK2 (Homo sapiens, UniProt Q16513); test: radioactive filter-binding kinase assay (33P-ATP); type: biochemical
Method: as §3

Chain of PRK2 (Q16513 501-984 limits assumed, species assumed): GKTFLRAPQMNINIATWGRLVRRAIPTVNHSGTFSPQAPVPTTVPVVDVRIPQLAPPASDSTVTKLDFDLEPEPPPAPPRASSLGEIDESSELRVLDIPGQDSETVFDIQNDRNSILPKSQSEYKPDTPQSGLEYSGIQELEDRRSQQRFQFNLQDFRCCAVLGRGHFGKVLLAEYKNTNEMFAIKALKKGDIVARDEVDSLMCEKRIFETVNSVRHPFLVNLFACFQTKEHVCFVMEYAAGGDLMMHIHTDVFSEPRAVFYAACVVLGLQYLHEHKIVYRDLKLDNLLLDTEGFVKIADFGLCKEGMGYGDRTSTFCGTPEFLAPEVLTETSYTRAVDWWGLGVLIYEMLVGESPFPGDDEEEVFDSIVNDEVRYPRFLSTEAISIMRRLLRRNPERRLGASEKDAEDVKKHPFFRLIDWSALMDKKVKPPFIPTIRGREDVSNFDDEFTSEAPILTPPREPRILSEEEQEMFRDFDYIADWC
Chain of ROCK2 (Q62868 2-543 limits assumed): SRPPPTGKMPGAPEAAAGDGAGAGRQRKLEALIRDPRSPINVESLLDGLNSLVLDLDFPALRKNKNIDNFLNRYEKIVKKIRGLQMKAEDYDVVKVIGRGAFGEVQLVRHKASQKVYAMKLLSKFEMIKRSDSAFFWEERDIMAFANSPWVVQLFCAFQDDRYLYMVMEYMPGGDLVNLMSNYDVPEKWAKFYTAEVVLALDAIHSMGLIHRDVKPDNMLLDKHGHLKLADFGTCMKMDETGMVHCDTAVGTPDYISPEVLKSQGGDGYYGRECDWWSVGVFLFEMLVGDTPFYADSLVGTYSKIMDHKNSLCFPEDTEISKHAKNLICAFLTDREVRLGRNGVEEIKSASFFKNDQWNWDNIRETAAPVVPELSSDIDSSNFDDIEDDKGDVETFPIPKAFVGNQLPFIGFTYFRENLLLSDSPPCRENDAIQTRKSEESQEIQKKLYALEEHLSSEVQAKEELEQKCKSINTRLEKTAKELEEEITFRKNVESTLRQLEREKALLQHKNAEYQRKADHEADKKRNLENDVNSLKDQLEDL

Row | cytogenetic stability (karyotype) (hPSC (H1 hESC)) | ROCK2 activity (ROCK2; 10 μM) [% activity] | inhibition of ROCK2 (in words) (ROCK2; 30 μM) | PRK2 activity (PRK2; 10 μM) [% activity] | PRK2 activity (PRK2; 30 μM) [% activity] | inhibition of PRK2 (in words) (PRK2; 30 μM) | SMILES | cell survival (hiPSC NMF-iPSC6) [%] | cell survival (hESC line H1) [%] | cell survival (hESC line RC9) [%] | cell survival (hESC line H9) [%] | levels of pMLC relative to α-tubulin [1] | differentiation towards mesoderm (SMA), endoderm (AFP) or ectoderm (PAX6) [2]
1 | karyotypically normal (46, XY) | – | – | – | – | – | C[C@@H](N)[C@H]1CC[C@H](C(=O)Nc2ccncc2)CC1 [Y27632, reference compound] | 74 | 72 | 71 | 73 | blocked the increase | did not block the differentiation
2 | karyotypically normal (46, XY) | 96 | did not inhibit | 76 | 98 | did not inhibit | Cc1cc(NC(=O)Cn2c(NCc3ccccc3)nc3ccccc32)no1 [SC332, 2-(2-(benzylamino)-1H-benzo[d]imidazol-1-yl)-N-(5-methylisoxazol-3-yl)acetamide] | 74 | 72 | 69 | 73 | high levels of pMLC equivalent to those in untreated cells | did not block the differentiation

Reference: patent US20170362184A1, “PRO-SURVIVAL COMPOUNDS” (University Court of The University of Glasgow, priority 2014, published 2017)
